Assay results reported in patent publication US20210038607A1, “OXADIAZOLYLTHIOPHENE DERIVATIVES USEFUL AS HISTONE DEACETYLASE INHIBITORS” (Karus Therapeutics Limited, priority 2018, published 2021).

What was measured:
Human HDAC5 = target: T1, Human HDAC5 (Homo sapiens, UniProt Q9UQL6); experiment: HDAC5 biochemical assay, class IIa-specific substrate; settings: read-out: HDAC Isoform IC50 (nM) 5
T1 construct: full length with C-terminal His tag, MW=51.1 kDa; His (C); host or cells: baculovirus expression system
T1 sequence (Q9UQL6 656-1122 limits assumed): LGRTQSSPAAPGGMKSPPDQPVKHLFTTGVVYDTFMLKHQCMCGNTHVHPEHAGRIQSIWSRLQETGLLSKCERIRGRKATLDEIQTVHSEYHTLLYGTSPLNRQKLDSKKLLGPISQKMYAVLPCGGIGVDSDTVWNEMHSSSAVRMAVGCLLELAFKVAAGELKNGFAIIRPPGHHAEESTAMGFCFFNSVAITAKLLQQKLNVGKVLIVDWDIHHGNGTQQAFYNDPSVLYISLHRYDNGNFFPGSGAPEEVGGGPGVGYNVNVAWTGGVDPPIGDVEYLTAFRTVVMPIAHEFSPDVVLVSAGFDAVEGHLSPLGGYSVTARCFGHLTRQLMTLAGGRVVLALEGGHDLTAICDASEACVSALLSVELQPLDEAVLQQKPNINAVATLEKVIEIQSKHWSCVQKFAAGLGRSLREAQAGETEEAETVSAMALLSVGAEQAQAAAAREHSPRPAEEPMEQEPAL
Outline: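 Full-length C-terminal His-tagged HDAC5 from baculovirus (0.05 ng/ul) incubated 30 min at room temperature with 50 μM Boc-Lys(trifluoroacetyl)-AMC and compound, Tris pH 8.0 buffer with BSA, 1% DMSO. Developer then releases AMC; fluorescence 360/460 nm.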

Recombinant human HDAC6 = target: T2, Recombinant human HDAC6 (Homo sapiens, UniProt Q9UBN7); experiment: HDAC6 biochemical assay, AMC-labeled peptide substrate; settings: HDAC6; read-out: HDAC Isoform IC50 (nM) 6
T2 construct: full length, MW=159 kDa; GST (N); host or cells: Sf9 insect cells (baculovirus)
T2 sequence (Q9UBN7 1-1215): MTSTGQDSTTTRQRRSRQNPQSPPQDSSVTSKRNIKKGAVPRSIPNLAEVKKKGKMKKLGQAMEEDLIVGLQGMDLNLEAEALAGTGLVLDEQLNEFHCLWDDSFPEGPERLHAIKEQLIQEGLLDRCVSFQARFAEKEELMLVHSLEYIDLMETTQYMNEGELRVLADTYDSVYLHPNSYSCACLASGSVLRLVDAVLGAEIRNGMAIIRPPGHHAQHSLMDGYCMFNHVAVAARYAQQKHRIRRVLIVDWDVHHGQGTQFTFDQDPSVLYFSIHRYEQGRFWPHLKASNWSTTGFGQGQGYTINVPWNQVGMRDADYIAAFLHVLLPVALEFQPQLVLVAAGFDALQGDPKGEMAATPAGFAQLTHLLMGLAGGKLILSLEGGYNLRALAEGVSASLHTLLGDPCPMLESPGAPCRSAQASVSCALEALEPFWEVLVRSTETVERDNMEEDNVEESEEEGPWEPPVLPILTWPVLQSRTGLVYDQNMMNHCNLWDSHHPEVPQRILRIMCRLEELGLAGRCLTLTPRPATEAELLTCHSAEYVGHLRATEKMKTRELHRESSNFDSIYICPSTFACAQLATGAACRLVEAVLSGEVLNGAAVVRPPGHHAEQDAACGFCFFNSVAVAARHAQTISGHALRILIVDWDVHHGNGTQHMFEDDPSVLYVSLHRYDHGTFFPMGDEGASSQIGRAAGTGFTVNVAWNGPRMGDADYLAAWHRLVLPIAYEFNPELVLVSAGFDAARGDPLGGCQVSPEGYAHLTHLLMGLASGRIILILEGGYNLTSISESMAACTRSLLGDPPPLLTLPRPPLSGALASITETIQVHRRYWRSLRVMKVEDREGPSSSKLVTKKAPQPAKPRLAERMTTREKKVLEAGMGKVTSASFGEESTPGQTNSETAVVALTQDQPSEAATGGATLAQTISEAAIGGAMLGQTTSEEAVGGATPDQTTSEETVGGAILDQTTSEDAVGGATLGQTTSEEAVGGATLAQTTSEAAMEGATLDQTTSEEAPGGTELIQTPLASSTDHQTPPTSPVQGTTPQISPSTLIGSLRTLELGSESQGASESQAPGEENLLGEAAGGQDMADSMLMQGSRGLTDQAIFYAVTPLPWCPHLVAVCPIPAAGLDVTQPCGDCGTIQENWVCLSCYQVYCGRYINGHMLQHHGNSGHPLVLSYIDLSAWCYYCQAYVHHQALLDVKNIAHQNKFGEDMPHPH
Outline: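 Two-step fluorogenic read-out: enzyme deacetylates 50 μM RHKK(Ac)AMC for 1 h at 30° C in pH 8.0 Tris buffer with BSA and 1% DMSO, then developer cleavage gives signal at Ex 360/Em 460. Enzyme: 0.3 ng/ul recombinant full-length human HDAC6, GST-tagged, Sf9-expressed.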

Human HDAC11 = target: T3, Human HDAC11 (Homo sapiens, UniProt Q96DB2); experiment: HDAC11 biochemical assay, class IIa-specific substrate; settings: read-out: HDAC Isoform IC50 (nM) 11
T3 construct: Human HDAC11 (full length); His (N); host or cells: baculovirus expression system
T3 sequence (Q96DB2 1-347): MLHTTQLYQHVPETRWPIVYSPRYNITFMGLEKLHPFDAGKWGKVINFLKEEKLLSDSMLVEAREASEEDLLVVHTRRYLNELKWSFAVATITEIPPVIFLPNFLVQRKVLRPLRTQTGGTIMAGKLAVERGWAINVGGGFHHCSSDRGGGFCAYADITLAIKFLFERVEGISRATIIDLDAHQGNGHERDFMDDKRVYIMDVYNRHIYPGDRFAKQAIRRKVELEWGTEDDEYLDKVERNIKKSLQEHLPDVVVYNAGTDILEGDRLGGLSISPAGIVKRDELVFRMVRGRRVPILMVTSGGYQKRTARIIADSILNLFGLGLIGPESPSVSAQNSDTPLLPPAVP
Outline: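 Full-length N-His human HDAC11 from baculovirus, 5 ng/μl, incubated with 50 μM Boc-Lys(trifluoroacetyl)-AMC for 30 min at 30 °C. Buffer: 50 mM Tris-HCl pH 8.0, 137 mM NaCl, 2.7 mM KCl, 1 mM MgCl2, 1 mg/mL BSA, 1% DMSO. Developer releases AMC; fluorescence read at 360/460 nm.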

IC50 (Human HDAC5) [nM]	IC50 (Recombinant human HDAC6) [nM]	IC50 (Human HDAC11) [nM]	SMILES
≤ 500	≤ 500	> 10000	FC(F)(F)c1nc(-c2ccc(CN(c3cnccn3)c3cc(N4CCOCC4)cnn3)s2)no1 [Example FP, 5-(Morpholin-4-yl)-N-(pyrazin-2-yl)-N-({5-[5-(trifluoromethyl)-1,2,4-oxadiazol-3-yl]thiophen-2-yl}methyl)pyridazin-3-amine]
≤ 1000	≤ 500	> 10000	O=C(c1cnnc(N(Cc2ccc(-c3noc(C(F)(F)F)n3)s2)c2cnccn2)c1)N1CCCC1 [Example EA, N-(Pyrazin-2-yl)-5-(pyrrolidine-1-carbonyl)-N-({5-[5-(trifluoromethyl)-1,2,4-oxadiazol-3-yl]thiophen-2-yl}methyl)pyridazin-3-amine]
≤ 1000	≤ 500	> 10000	CNC(=O)c1cnnc(N(Cc2ccc(-c3noc(C(F)(F)F)n3)s2)c2cnccn2)c1 [Example DY, N-Methyl-6-[(pyrazin-2-yl)({5-[5-(trifluoromethyl)-1,2,4-oxadiazol-3-yl]thiophen-2-yl}methyl)amino]pyridazine-4-carboxamide]
≤ 10000	≤ 500	> 10000	CN(C)C1CN(C(=O)c2cnnc(N(Cc3ccc(-c4noc(C(F)(F)F)n4)s3)c3cnccn3)c2)C1 [Example FX, 5-[3-(Dimethylamino)azetidine-1-carbonyl]-N-(pyrazin-2-yl)-N-({5-[5-(trifluoromethyl)-1,2,4-oxadiazol-3-yl]thiophen-2-yl}methyl)pyridazin-3-amine]
≤ 500	≤ 10000	> 10000	O=C(c1cncc(N(Cc2ccc(-c3noc(C(F)(F)F)n3)s2)c2cnccn2)c1)N1CCOCC1 [Example GR, N-[5-(Morpholine-4-carbonyl)pyridin-3-yl]-N-({5-[5-(trifluoromethyl)-1,2,4-oxadiazol-3-yl]thiophen-2-yl}methyl)pyrazin-2-amine]
≤ 10000	≤ 500	> 10000	CN1CCN(C(=O)c2cnnc(N(Cc3ccc(-c4noc(C(F)(F)F)n4)s3)c3cnccn3)c2)CC1 [Example EC, 5-(4-Methylpiperazine-1-carbonyl)-N-(pyrazin-2-yl)-N-({5-[5-(trifluoromethyl)-1,2,4-oxadiazol-3-yl]thiophen-2-yl}methyl)pyridazin-3-amine]
≤ 10000	≤ 1000	> 10000	NC(=O)c1nccnc1N(Cc1ccc(-c2noc(C(F)(F)F)n2)s1)c1cnccn1 [Example GO, 3-[(Pyrazin-2-yl)({5-[5-(trifluoromethyl)-1,2,4-oxadiazol-3-yl]thiophen-2-yl}methyl)amino]pyrazine-2-carboxamide]
≤ 10000	≤ 1000	> 10000	FC(F)(F)c1nc(-c2ccc(CN(c3cnccn3)c3cc(CN4CCOCC4)ccn3)s2)no1 [Example GI, N-{4-[(Morpholin-4-yl)methyl]pyridin-2-yl}-N-({5-[5-(trifluoromethyl)-1,2,4-oxadiazol-3-yl]thiophen-2-yl}methyl)pyrazin-2-amine]
≤ 10000	≤ 10000	> 10000	FC(F)(F)c1cnc(N(Cc2ccc(-c3noc(C(F)(F)F)n3)s2)c2cnccn2)cn1 [Example BK, N-(Pyrazin-2-yl)-5-(trifluoromethyl)-N-({5-[5-(trifluoromethyl)-1,2,4-oxadiazol-3-yl]thiophen-2-yl}methyl)pyrazin-2-amine]
≤ 1000	≤ 500	> 10000	O=C(c1cnnc(N(Cc2ccc(-c3noc(C(F)(F)F)n3)s2)c2cnccn2)c1)N1C[C@@H]2C[C@H]1CO2 [Example FV, 5-[(1S,4S)-2-Oxa-5-azabicyclo[2.2.1]heptane-5-carbonyl]-N-(pyrazin-2-yl)-N-({5-[5-(trifluoromethyl)-1,2,4-oxadiazol-3-yl]thiophen-2-yl}methyl)pyridazin-3-amine]
